16 molecules from patent publication US20240360157A1, “TYK2 INHIBITORS” (BIOGEN MA INC., priority 2021, published 2024) can be followed below.

Format in all cases: biochemical
For experiment [1], the target named is human JAK3 catalytic kinase (JH1) domain (Homo sapiens (Human), UniProt P52333). The experiment is described as follows: ADP-Glo Kinase Assay, recombinant JAK3 catalytic kinase (JH1) domain. Conditions: recombinant JH1 domain 0.3 nM, 4 μM ATP, JAK3-974 peptide, mean, read-out: JAK3 biochem IC50 (nM) Mean. An outline of the steps: (§1)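 ADP-Glo luminescence with 50 μM peptide and 100 min reactions: JAK1 4 nM with JAK3-342 peptide; JAK2, JAK3 and TYK2 at 0.2, 0.3 and 2 nM with JAK3-974 peptide. Compounds tested from 10 or 1 μM top, 11 points, 3-fold. IC50 from a 4-parameter logistic fit of normalized activity.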
(In general: ADP-Glo turns the ADP formed in a reaction into a luminescent signal.)

Experiment [2] addresses human JAK2 catalytic kinase (JH1) domain (Homo sapiens (Human), UniProt O60674). Kind of experiment: ADP-Glo Kinase Assay, recombinant JAK2 catalytic kinase (JH1) domain. The settings on record: recombinant JH1 domain 0.2 nM, 15 μM ATP, JAK3-974 peptide, mean, read-out: JAK2 biochem IC50 (nM) Mean. An outline of the steps:
as §1

Experiment [3] concerns the target human JAK1 catalytic kinase (JH1) domain (Homo sapiens (Human), UniProt P23458). Kind of experiment: ADP-Glo Kinase Assay, recombinant JAK1 catalytic kinase (JH1) domain. The settings on record: recombinant JH1 domain 4 nM, 35 μM ATP, JAK3-342 peptide, mean, read-out: JAK1 biochem IC50 (nM) Mean. An outline of the steps:
as §1

Experiment [4] concerns the target human TYK2 catalytic kinase (JH1) domain (Homo sapiens (Human), UniProt P29597). Kind of experiment: ADP-Glo Kinase Assay, recombinant TYK2 catalytic kinase (JH1) domain. Conditions: recombinant JH1 domain 2 nM, 10 μM ATP, JAK3-974 peptide, mean, read-out: TYK2 biochem IC50 (nM) Mean. An outline of the steps: as §1

Sequence of human JAK3 catalytic kinase (JH1) domain (P52333 822-1111): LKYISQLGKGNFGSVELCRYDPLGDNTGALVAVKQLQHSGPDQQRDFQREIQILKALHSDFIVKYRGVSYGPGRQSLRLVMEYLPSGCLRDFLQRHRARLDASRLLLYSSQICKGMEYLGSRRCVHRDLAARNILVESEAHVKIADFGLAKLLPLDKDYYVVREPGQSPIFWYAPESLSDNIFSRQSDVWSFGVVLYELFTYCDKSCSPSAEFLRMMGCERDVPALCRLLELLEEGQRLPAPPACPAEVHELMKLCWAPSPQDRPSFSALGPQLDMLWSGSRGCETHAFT
Sequence of human JAK2 catalytic kinase (JH1) domain (O60674 849-1124): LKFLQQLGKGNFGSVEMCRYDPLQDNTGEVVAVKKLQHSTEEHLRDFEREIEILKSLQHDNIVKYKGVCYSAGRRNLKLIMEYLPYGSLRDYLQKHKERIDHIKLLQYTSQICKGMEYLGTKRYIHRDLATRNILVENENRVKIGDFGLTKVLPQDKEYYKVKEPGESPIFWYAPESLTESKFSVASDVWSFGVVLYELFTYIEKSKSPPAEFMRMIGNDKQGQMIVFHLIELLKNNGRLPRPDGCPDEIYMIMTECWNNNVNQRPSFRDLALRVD
Sequence of human JAK1 catalytic kinase (JH1) domain (P23458 875-1153): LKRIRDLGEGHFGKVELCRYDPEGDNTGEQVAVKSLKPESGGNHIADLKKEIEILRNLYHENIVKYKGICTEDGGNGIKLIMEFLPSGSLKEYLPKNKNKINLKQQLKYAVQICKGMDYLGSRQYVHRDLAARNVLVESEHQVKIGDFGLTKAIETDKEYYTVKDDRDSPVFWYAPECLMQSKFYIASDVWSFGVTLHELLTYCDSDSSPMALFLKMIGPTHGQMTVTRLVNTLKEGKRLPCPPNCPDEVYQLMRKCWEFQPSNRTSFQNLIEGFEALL
Sequence of human TYK2 catalytic kinase (JH1) domain (P29597 897-1176): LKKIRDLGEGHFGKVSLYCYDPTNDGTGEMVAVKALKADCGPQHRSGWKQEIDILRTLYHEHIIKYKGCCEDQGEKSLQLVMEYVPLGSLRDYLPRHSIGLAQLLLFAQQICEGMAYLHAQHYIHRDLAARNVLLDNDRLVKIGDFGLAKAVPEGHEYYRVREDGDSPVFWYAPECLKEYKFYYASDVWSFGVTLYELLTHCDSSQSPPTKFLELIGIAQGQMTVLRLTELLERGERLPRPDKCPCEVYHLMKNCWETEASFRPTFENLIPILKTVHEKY

What is called IC50 is the point on the concentration scale where inhibition reaches its midpoint. On to `CC(C)C(=O)N1C2CCC1CN(c1ncnn3cc(-c4cnn(C)c4)cc13)C2` [Example 58, 2-methyl-1-(3-(6-(1-methyl-1H-pyrazol-4-yl)pyrrolo[2,1-f][1,2,4]triazin-4-yl)-3,8-diazabicyclo[3.2.1]octan-8-yl)propan-1-one], for which the IC50 in experiment [1] is 10000 nM; in experiment [2] it was 10000 nM; in experiment [3], 10000 nM; in experiment [4], 960 nM.

Consider `Cn1cc(-c2cc3c(N4CC5CCC(C4)N5C(=O)CC(F)(F)F)ncnn3c2)cn1` [Example 59, 3,3,3-trifluoro-1-(3-(6-(1-methyl-1H-pyrazol-4-yl)pyrrolo[2,1-f][1,2,4]triazin-4-yl)-3,8-diazabicyclo[3.2.1]octan-8-yl)propan-1-one], for which the IC50 came out at 6940 nM in experiment [1], 9730 nM in experiment [2], 3500 nM in experiment [3] and 652 nM in experiment [4].

For `Cn1cc(-c2cc3c(N4CC5CCC(C4)N5C(=O)CC#N)ncnn3c2)cn1` [Example 62, 3-(3-(6-(1-methyl-1H-pyrazol-4-yl)pyrrolo[2,1-f][1,2,4]triazin-4-yl)-3,8-diazabicyclo[3.2.1]octan-8-yl)-3-oxopropanenitrile], the IC50 in experiment [1] was determined as 6830 nM; in experiment [2], 8710 nM; in experiment [3], 860 nM; in experiment [4] it was 351 nM.

Turning to `Cn1cc(-c2cc3c(N4CC5CCC(C4)N5C(=O)C4CC4(F)F)ncnn3c2)cn1` (stereo not shown) [Example 63, (2,2-difluorocyclopropyl)(3-(6-(1-methyl-1H-pyrazol-4-yl)pyrrolo[2,1-f][1,2,4]triazin-4-yl)-3,8-diazabicyclo[3.2.1]octan-8-yl)methanone], the IC50 in experiment [1] was found to be 4530 nM; in experiment [2] it was 3050 nM; in experiment [3], 787 nM; in experiment [4], 117 nM.

Regarding `Cn1cc(-c2cc3c(N4CC5CCC(C4)N5C(=O)C4(F)CC4)ncnn3c2)cn1` [Example 64, (1-fluorocyclopropyl)(3-(6-(1-methyl-1H-pyrazol-4-yl)pyrrolo[2,1-f][1,2,4]triazin-4-yl)-3,8-diazabicyclo[3.2.1]octan-8-yl)methanone], the IC50 in experiment [1] came to 1110 nM; in experiment [2], 5210 nM; in experiment [3] it was 1150 nM; in experiment [4], 289 nM.

As to `Cn1cc(-c2cc3c(N4CC5CCC(C4)N5C(=O)C4CCC4)ncnn3c2)cn1` [Example 67, Cyclobutyl(3-(6-(1-methyl-1H-pyrazol-4-yl)pyrrolo[2,1-f][1,2,4]triazin-4-yl)-3,8-diazabicyclo[3.2.1]octan-8-yl)methanone], the IC50 is 4440 nM in experiment [1], 7460 nM in experiment [2], 3230 nM in experiment [3] and 365 nM in experiment [4].

For `Cn1cc(-c2cc3c(N4CC5CCC(C4)N5C(=O)C4(C)CCC4)ncnn3c2)cn1` [Example 68, (3-(6-(1-methyl-1H-pyrazol-4-yl)pyrrolo[2,1-f][1,2,4]triazin-4-yl)-3,8-diazabicyclo[3.2.1]octan-8-yl)(1-methylcyclobutyl)methanone], the IC50 in experiment [1] worked out at 8670 nM; in experiment [2], 9180 nM; in experiment [3], 8700 nM; in experiment [4] it was 696 nM.

`Cn1cc(-c2cc3c(N4CC5CCC(C4)N5C(=O)C4CC(F)C4)ncnn3c2)cn1` (stereo not shown) [Example 69, (3-fluorocyclobutyl)(3-(6-(1-methyl-1H-pyrazol-4-yl)pyrrolo[2,1-f][1,2,4]triazin-4-yl)-3,8-diazabicyclo[3.2.1]octan-8-yl)methanone]: the IC50 in experiment [1] stood at 9720 nM; in experiment [2], 10000 nM; in experiment [3], 6660 nM; in experiment [4], 694 nM.

As to `Cn1cc(-c2cc3c(N4CC5CCC(C4)N5C(=O)C4CC(F)(F)C4)ncnn3c2)cn1` [Example 70, (3,3-difluorocyclobutyl)(3-(6-(1-methyl-1H-pyrazol-4-yl)pyrrolo[2,1-f][1,2,4]triazin-4-yl)-3,8-diazabicyclo[3.2.1]octan-8-yl)methanone], the IC50 in experiment [1] was 5090 nM; in experiment [2], 6360 nM; in experiment [3], 2430 nM; in experiment [4], 382 nM.

On to `Cn1cc(-c2cc3c(N4CC5CCC(C4)N5C(=O)C4COC4)ncnn3c2)cn1` [Example 71, (3-(6-(1-methyl-1H-pyrazol-4-yl)pyrrolo[2,1-f][1,2,4]triazin-4-yl)-3,8-diazabicyclo[3.2.1]octan-8-yl)(oxetan-3-yl)methanone], for which the IC50 in experiment [1] came out at 10000 nM; in experiment [2] it was 10000 nM; in experiment [3], 5320 nM; in experiment [4], 911 nM.

`Cn1cc(-c2cc3c(N4CC5CCC(C4)N5C(=O)C(C)(F)F)ncnn3c2)cn1` [Example 72, 2,2-difluoro-1-(3-(6-(1-methyl-1H-pyrazol-4-yl)pyrrolo[2,1-f][1,2,4]triazin-4-yl)-3,8-diazabicyclo[3.2.1]octan-8-yl)propan-1-one]: the IC50 in experiment [1] turned out to be 703 nM; in experiment [2], 2340 nM; in experiment [3], 759 nM; in experiment [4], 206 nM.

With `O=C([C@@H]1C[C@H]1F)N1C2CCC1CN(c1ncnn3cc(-c4cnn(C(F)F)c4)cc13)C2` [Example 76, (3-(6-(1-(difluoromethyl)-1H-pyrazol-4-yl)pyrrolo[2,1-f][1,2,4]triazin-4-yl)-3,8-diazabicyclo[3.2.1]octan-8-yl)((1S,2R)-2-fluorocyclopropyl)methanone], the IC50 amounted to 6270 nM in experiment [1], 850 nM in experiment [2], 574 nM in experiment [3] and 23.1 nM in experiment [4].

As to `Cn1cc(-c2cc3c(N4CC5CCC(C4)N5C(=O)[C@@H]4C[C@@H]4F)ncnn3c2)cn1` [Example 80, ((1S,2S)-2-fluorocyclopropyl)(3-(6-(1-methyl-1H-pyrazol-4-yl)pyrrolo[2,1-f][1,2,4]triazin-4-yl)-3,8-diazabicyclo[3.2.1]octan-8-yl)methanone], the IC50 in experiment [1] was found to be 2050 nM; in experiment [2] it was 8020 nM; in experiment [3], 1340 nM; in experiment [4], 483 nM.

For the molecule `Cn1cc(-c2cc3c(N4CC5CCC(C4)N5C(=O)[C@@H]4C[C@H]4F)ncnn3c2)cn1` [Example 82, ((1S,2R)-2-fluorocyclopropyl)(3-(6-(1-methyl-1H-pyrazol-4-yl)pyrrolo[2,1-f][1,2,4]triazin-4-yl)-3,8-diazabicyclo[3.2.1]octan-8-yl)methanone], the IC50 in experiment [1] is 3060 nM; in experiment [2] it was 8860 nM; in experiment [3], 1650 nM; in experiment [4] it was 400 nM.

Turning to `Cn1cc(-c2cc3c(N4CC5CCC(C4)N5C(=O)[C@@H]4CC4(F)F)ncnn3c2)cn1` [Example 83, ((S)-2,2-difluorocyclopropyl)(3-(6-(1-methyl-1H-pyrazol-4-yl)pyrrolo[2,1-f][1,2,4]triazin-4-yl)-3,8-diazabicyclo[3.2.1]octan-8-yl)methanone], the IC50 in experiment [1] was 1640 nM; in experiment [2], 5730 nM; in experiment [3], 652 nM; in experiment [4] it was 333 nM.

Take `Cn1cc(-c2cc3c(N4CC5CCC(C4)N5C(=O)[C@H]4CC4(F)F)ncnn3c2)cn1` [Example 84, ((R)-2,2-difluorocyclopropyl)(3-(6-(1-methyl-1H-pyrazol-4-yl)pyrrolo[2,1-f][1,2,4]triazin-4-yl)-3,8-diazabicyclo[3.2.1]octan-8-yl)methanone]: the IC50 in experiment [1] came out at 6890 nM; in experiment [2] it was 1220 nM; in experiment [3], 1800 nM; in experiment [4], 55 nM.
